Assay results reported in patent US12612411B1, “Imidazopyrazine derivatives, process for preparation thereof, and their uses as luciferins” (INSTITUT PASTEUR, priority 2017, dated 2026).

Target: T1, nanoKAZ luciferase (Oplophorus gracilirostris, UniProt Q9GV45, A31E/A60N/A81I/F95D/I117V/K70R/L54V/L99Q/M102K/N193R/P142E/Q151K/Q38R/Q45L/V71I/Y165I)
T1 construct: luciferase catalytic domain (nanoKAZ, 19 kDa) from the Oplophorus-derived luciferase; host or cells: cell-free: 1-Step Human Coupled IVT Kit, pT7CFE1-based vector
Assay: In vitro bioluminescence screening of imidazo[1,2-a]pyrazin-3(7H)-ones with nanoKAZ expressed in vitro (96-well luminometer, 2 h kinetic)
Type: biochemical
Conditions: furimazine = 1
Procedure: General protocol for the generation of solutions of imidazo[1,2-a]pyrazin-3(7H)-one Q by acidic hydrolysis of imidazo[1,2-a]pyrazin-3-yl acetate derivatives P. The considered acetate P (1 mg) was dissolved in DMSO (0.2 mL) and then diluted by adding a solution of acidic ethanol (0.3 ml) made from the addition of 37% hydrochloric acid (100 μl) on 100% ethanol (12 mL). This 0.5 mL solution was incubated at 50° C. for 2 hours to give a stock solution which was then stored at −80° C. […] Nota: these conditions are only adapted to the hydrolysis of the protecting group (as defined above) of the oxygen on position 2 of the imidazo[1,2-a]pyrazine ring system and not to the hydrolysis of any additional acetyl groups eventually present elsewhere on the substrate of this reaction.
The representative bioluminescence curves shown in the FIG. 2 provided an assessment for furimazine (Q-1), 8-benzyl-2-(furan-2-ylmethyl)-6-(4-hydroxyphenyl)imidazo[1,2-a]pyrazin-3 (7/1)-one (Q-80), 8-(2-fluorobenzyl)-2-(furan-2-ylmethyl)-6-phenylimidazo[1,2-a]pyrazin-3(7H)-one (Q-84), and 8-(2-fluorobenzyl)-2-((5-methylfuran-2-yl)methyl)-6-phenylimidazo[1,2-a]pyrazin-3(7H)-one (Q-85) was obtained using a luciferase expressed in vitro as described in the following. The nanoKAZ DNA template was cloned into Thermo Scientific pT7CFE1-based vector and nanoKAZ was expressed using ThermoFisher Scientific 1-Step Human Coupled IVT Kit—DNA (ref. 88881) according to the manufacturer instructions. The resulting reaction mix was diluted 400 times in buffer (DPBS (Gibco)+0.1% (v/v) Tween 20) and conserved at −80° C. The screening of the imidazo[1,2-a]pyrazin-3(7H)-ones was performed in 96 well plates using 50 μL/well of a 1/20 dilution in DPBS (Gibco)+0.1% (v/v) Tween 20 of the nanoKAZ solution.
To illustrate the bioluminescence properties improvement achieved for many of the imidazo[1,2-a]pyrazin-3(7H)-ones described here, four values are provided in Table 1: maximum intensity (V1), signal half-life (V2), area under the curve for ten minutes (V3), and area under the curve for two hours (V4), normalized using furimazine (Q-1) as a reference.
The bioluminescence properties of the tested compounds are considered to be improved when at least one of the values V1-V4 is above 1, and when none of the V1-V4 values is 0.05 or below.
By following the hydrolysis protocol described above, the following imidazo[1,2-a]pyrazin-3(7H)-ones luciferins Q were made in situ from the corresponding O-protected imidazo[1,2-a]pyrazines P and evaluated for their bioluminescence properties (maximum intensity (V1), signal half-life (V2), area under the curve for […], normalized using furimazine (Q-1) as a reference): […]

[1] = second table, luciferins made in situ from O-protected P

T1 sequence (Q9GV45 other isoform, or with tags, fused parts or gaps with the stated changes): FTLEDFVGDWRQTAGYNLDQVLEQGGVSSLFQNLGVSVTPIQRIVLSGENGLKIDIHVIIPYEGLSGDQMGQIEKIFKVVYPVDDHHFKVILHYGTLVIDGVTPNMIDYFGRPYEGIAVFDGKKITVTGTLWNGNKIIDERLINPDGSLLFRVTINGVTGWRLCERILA

Compound | V3: area under the curve for 2 hours, normalized using furimazine (Q-1) as a reference (second table) | V4: area under the curve for ten minutes, normalized using furimazine (Q-1) as a reference (second table) | V1: maximum intensity, normalized using furimazine (Q-1) as a reference [1] | V1: maximum intensity, normalized using furimazine (Q-1) as a reference (Table 1) | V3: area under the curve for ten minutes, normalized using furimazine (Q-1) as a reference (Table 1) | V4: area under the curve for two hours, normalized using furimazine (Q-1) as a reference (Table 1)
Cc1cc(Cc2nc3c(Cc4cccc(F)c4)[nH]c(-c4ccccc4)cn-3c2=O)oc1C [Q-132, 2-((4,5-dimethylfuran-2-yl)methyl)-8-(3-fluorobenzyl)-6-phenylimidazo[1,2-a]pyrazin-3(7H)-one] | 1.44 | 1 | 1.5 | – | – | –
Cc1cccc(Cc2nc3c(Cc4ccccc4)[nH]c(-c4ccccc4)cn-3c2=O)c1 [Q-14, 8-benzyl-2-(3-methylbenzyl)-6-phenylimidazo[1,2-a]pyrazin-3(7H)-one] | – | – | – | 1.8 | 1.66 | 0.96
Cc1ccc(Cc2nc3c(Cc4ccccc4)[nH]c(-c4ccccc4F)cn-3c2=O)o1 [Q-34, 8-benzyl-6-(2-fluorophenyl)-2-((5-methylfuran-2-yl)methyl)imidazo[1,2-a]pyrazin-3(7H)-one] | – | – | – | 2.17 | 1.89 | 1.13
Cc1cccc(Cc2nc3c(Cc4cccc(F)c4)[nH]c(-c4ccccc4)cn-3c2=O)c1 [Q-100, 8-(3-fluorobenzyl)-2-(3-methylbenzyl)-6-phenylimidazo[1,2-a]pyrazin-3(7H)-one] | – | – | – | 1.25 | 1.33 | 1.04
Cc1cc(Cc2nc3c(Cc4ccccc4)[nH]c(-c4ccccc4F)cn-3c2=O)oc1C [Q-61, 8-benzyl-2-((4,5-dimethylfuran-2-yl)methyl)-6-(2-fluorophenyl)imidazo[1,2-a]pyrazin-3(7H)-one] | – | – | – | 2.13 | 1.97 | 0.78
Cc1ccc(Cc2nc3c(Cc4cccc(F)c4)[nH]c(-c4ccccc4F)cn-3c2=O)o1 [Q-105, 8-(3-fluorobenzyl)-6-(2-fluorophenyl)-2-((5-methylfuran-2-yl)methyl)imidazo[1,2-a]pyrazin-3(7H)-one] | 2.01 | 1.72 | 2.04 | – | – | –
Cc1ccc(Cc2nc3c(Cc4ccccc4F)[nH]c(-c4ccccc4)cn-3c2=O)o1 [Q-85, 8-(2-fluorobenzyl)-2-((5-methylfuran-2-yl)methyl)-6-phenylimidazo[1,2-a]pyrazin-3(7H)-one] | – | – | – | 2.3 | 2.4 | 1.81
CCc1ccc(Cc2nc3c(Cc4ccccc4F)[nH]c(-c4ccccc4)cn-3c2=O)o1 [Q-96, 2-((5-ethylfuran-2-yl)methyl)-8-(2-fluorobenzyl)-6-phenylimidazo[1,2-a]pyrazin-3(7H)-one] | – | – | – | 2.51 | 2.68 | 1.98
O=c1c(Cc2ccco2)nc2c(Cc3ccccc3)[nH]c(-c3ccc(O)cc3)cn1-2 [Q-80, 8-benzyl-2-(furan-2-ylmethyl)-6-(4-hydroxyphenyl)imidazo[1,2-a]pyrazin-3(7H)-one, reference compound] | – | – | – | 3.06 | 0.79 | 0.14
CCc1ccc(Cc2nc3c(Cc4cccc(F)c4)[nH]c(-c4ccccc4)cn-3c2=O)o1 [Q-99, 2-((5-ethylfuran-2-yl)methyl)-8-(3-fluorobenzyl)-6-phenylimidazo[1,2-a]pyrazin-3(7H)-one] | – | – | – | 1.99 | 2.13 | 2.08
O=c1c(Cc2ccco2)nc2c(Cc3ccccc3)[nH]c(-c3cccc(O)c3)cn1-2 [Q-149, 8-benzyl-2-(furan-2-ylmethyl)-6-(3-hydroxyphenyl)imidazo[1,2-a]pyrazin-3(7H)-one] | 0.85 | 1.05 | 1.12 | – | – | –
O=c1c(Cc2ccccc2F)nc2c(Cc3ccccc3)[nH]c(-c3ccccc3)cn1-2 [Q-56, 8-benzyl-2-(2-fluorobenzyl)-6-phenylimidazo[1,2-a]pyrazin-3(7H)-one] | – | – | – | 1.84 | 1.51 | 0.7
CCc1ccc(Cc2nc3c(Cc4cccc(F)c4F)[nH]c(-c4ccccc4)cn-3c2=O)o1 [Q-127, 8-(2,3-difluorobenzyl)-2-((5-ethylfuran-2-yl)methyl)-6-phenylimidazo[1,2-a]pyrazin-3(7H)-one] | 2.69 | 1.55 | 2.81 | – | – | –
O=c1c(Cc2cccc(F)c2)nc2c(Cc3ccccc3)[nH]c(-c3ccccc3)cn1-2 [Q-41, 8-benzyl-2-(3-fluorobenzyl)-6-phenylimidazo[1,2-a]pyrazin-3(7H)-one] | – | – | – | 1.49 | 1.28 | 0.74
CCc1cc(Cc2nc3c(Cc4cccc(F)c4F)[nH]c(-c4ccccc4)cn-3c2=O)oc1C [Q-135, 8-(2,3-difluorobenzyl)-2-((4-ethyl-5-methylfuran-2-yl)methyl)-6-phenylimidazo[1,2-a]pyrazin-3(7H)-one] | 0.51 | 1.19 | 1.26 | – | – | –
Cc1ccc(Cc2nc3c(Cc4ccccc4Cl)[nH]c(-c4ccccc4)cn-3c2=O)o1 [Q-98, 8-(2-chlorobenzyl)-2-((5-methylfuran-2-yl)methyl)-6-phenylimidazo[1,2-a]pyrazin-3(7H)-one] | – | – | – | 1.18 | 1.28 | 1.20
Cc1cc(Cc2nc3c(Cc4ccccc4)[nH]c(-c4ccccc4)cn-3c2=O)oc1C [Q-16, 8-benzyl-2-((4,5-dimethylfuran-2-yl)methyl)-6-phenylimidazo[1,2-a]pyrazin-3(7H)-one] | – | – | – | 2.07 | 1.88 | 0.93
Cc1ccc(Cc2nc3c(Cc4c(F)cccc4F)[nH]c(-c4ccccc4)cn-3c2=O)o1 [Q-121, 8-(2,6-difluorobenzyl)-2-((5-methylfuran-2-yl)methyl)-6-phenylimidazo[1,2-a]pyrazin-3(7H)-one] | 1.43 | 1.37 | 1.41 | – | – | –
O=c1c(Cc2ccccc2)nc2c(Cc3ccccc3)[nH]c(-c3ccc(O)cc3)cn1-2 [Q-75, 2,8-dibenzyl-6-(4-hydroxyphenyl)imidazo[1,2-a]pyrazin-3(7H)-one, reference compound] | – | – | – | 2.03 | 0.45 | 0.11
